Results as given in BindingDB's records for doi:10.1021/jm0704651 (University of Turin, 2007).

Target: T1, Lanosterol synthase (Homo sapiens, UniProt P48449)
T1 sequence (P48449 whole entry): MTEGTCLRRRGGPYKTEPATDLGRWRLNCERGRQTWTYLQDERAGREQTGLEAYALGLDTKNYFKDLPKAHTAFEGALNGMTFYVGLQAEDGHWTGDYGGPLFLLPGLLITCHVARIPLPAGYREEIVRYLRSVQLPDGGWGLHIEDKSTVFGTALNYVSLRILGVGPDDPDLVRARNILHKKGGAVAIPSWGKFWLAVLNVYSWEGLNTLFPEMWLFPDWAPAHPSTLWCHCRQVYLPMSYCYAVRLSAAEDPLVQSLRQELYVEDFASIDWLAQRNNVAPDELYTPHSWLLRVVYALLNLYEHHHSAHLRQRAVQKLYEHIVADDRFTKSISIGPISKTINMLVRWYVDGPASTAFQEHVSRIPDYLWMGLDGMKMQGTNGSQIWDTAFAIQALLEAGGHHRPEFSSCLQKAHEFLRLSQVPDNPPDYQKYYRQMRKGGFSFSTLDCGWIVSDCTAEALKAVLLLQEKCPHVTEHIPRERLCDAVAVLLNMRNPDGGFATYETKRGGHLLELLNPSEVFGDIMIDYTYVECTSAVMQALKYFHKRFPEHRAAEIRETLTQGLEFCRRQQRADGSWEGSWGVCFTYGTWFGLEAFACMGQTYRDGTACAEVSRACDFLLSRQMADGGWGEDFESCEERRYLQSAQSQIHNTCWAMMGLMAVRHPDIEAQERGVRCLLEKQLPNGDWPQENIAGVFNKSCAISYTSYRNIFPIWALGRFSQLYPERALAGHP
Test: Inhibition of oxidosqualene cyclase

- IC50: 19 nM
SMILES: C=CCN(C)CCCCCCOc1ccc2c(-c3ccc(Br)cc3)nn(C)c2c1
